Columns and labels:
Experiment in all cases: Kirby-Bauer disk diffusion susceptibility test
B. cereus = format: cell-based, Bacillus cereus
S. epidermidis = format: cell-based, Staphylococcus epidermidis
S. aureus = format: cell-based, Staphylococcus aureus
A. baumannii = format: cell-based, Acinetobacter baumannii
N. carnea = format: cell-based, Nocardia carnea
N. cyriacigeorgica = format: cell-based
T. pulmonis = format: cell-based, Tsukamurella pulmonis
[1] = B. cereus strain 25, isolation year 2014
[2] = B. cereus strain 182, isolation year 2013
[3] = S. epidermidis strain 188, isolation year 2009
[4] = S. epidermidis strain 982, isolation year 2006
[5] = S. aureus strain 282, isolation year 2005
[6] = S. aureus strain 890, isolation year 2010
[7] = A. baumannii strain 300, isolation year 2001
[8] = A. baumannii strain 1301, isolation year 2009

| Compound | Characteristics of strains: susceptibility or resistance (B. cereus; [1]) | Characteristics of strains: susceptibility or resistance (B. cereus; [2]) | Characteristics of strains: susceptibility or resistance (S. epidermidis; [3]) | Characteristics of strains: susceptibility or resistance (S. epidermidis; [4]) | Characteristics of strains: susceptibility or resistance (S. aureus; [5]) | Characteristics of strains: susceptibility or resistance (S. aureus; [6]) | Characteristics of strains: susceptibility or resistance (A. baumannii; [7]) | Characteristics of strains: susceptibility or resistance (A. baumannii; [8]) | also measured |
| --- | --- | --- | --- | --- | --- | --- | --- | --- | --- |
| CO[C@H]1/C=C/O[C@@]2(C)Oc3c(C)c(O)c4c(O)c(c(/C=N/N5CCN(C)CC5)c(O)c4c3C2=O)NC(=O)/C(C)=C\C=C\[C@H](C)[C@H](O)[C@@H](C)[C@@H](O)[C@@H](C)[C@H](OC(C)=O)[C@@H]1C [RIF, Rifampicin] | S | S |  |  |  |  |  |  |  |
| CN[C@H](CC(C)C)C(=O)N[C@H]1C(=O)N[C@@H](CC(N)=O)C(=O)N[C@H]2C(=O)N[C@H]3C(=O)N[C@H](C(=O)N[C@H](C(=O)O)c4cc(O)cc(O)c4-c4cc3ccc4O)[C@H](O)c3ccc(c(Cl)c3)Oc3cc2cc(c3O[C@@H]2O[C@H](CO)[C@@H](O)[C@H](O)[C@H]2O[C@H]2C[C@](C)(N)[C@H](O)[C@H](C)O2)Oc2ccc(cc2Cl)[C@H]1O [VAN, Vancomycin] | S | S | S | S | S | S |  |  |  |
| C[C@@H](O)[C@H]1C(=O)N2C(C(=O)O)=C(S[C@@H]3CN[C@H](C(=O)N(C)C)C3)[C@H](C)[C@H]12 [MER, Meropenem] |  |  |  |  |  |  | R | S |  |
| CO/N=C(\C(=O)N[C@@H]1C(=O)N2C(C(=O)O)=C(COC(C)=O)CS[C@H]12)c1csc(N)n1 [CTX, Cefotaxime] |  |  |  |  |  |  |  |  | Characteristics of strains: susceptibility or resistance (N. carnea; N. carnea strain 40, isolation year 2011): S; Characteristics of strains: susceptibility or resistance (N. carnea; N. carnea strain 769, isolation year 2009): S; Characteristics of strains: susceptibility or resistance (N. cyriacigeorgica; N. cyriacigeorgica strain 30, isolation year 2005): S; Characteristics of strains: susceptibility or resistance (N. cyriacigeorgica; N. cyriacigeorgica strain 199, isolation year 2005): R; Characteristics of strains: susceptibility or resistance (T. pulmonis; T. pulmonis strain 40, isolation year 2015): R; Characteristics of strains: susceptibility or resistance (T. pulmonis; T. pulmonis strain 1991, isolation year 2009): S |
| CCC[C@@H]1C[C@@H](C(=O)N[C@@H]([C@H]2O[C@H](SC)[C@H](O)[C@@H](O)[C@H]2O)[C@H](C)Cl)N(C)C1 [CLI, Clindamycin] | R | R | S | R | R | R |  |  |  |
| NC[C@H]1O[C@H](O[C@H]2[C@H](O)[C@@H](O[C@H]3O[C@H](CO)[C@@H](O)[C@H](N)[C@H]3O)[C@H](N)C[C@@H]2N)[C@H](N)C[C@@H]1O [TOB, Tobramycin] |  |  |  |  |  |  | S | S |  |
| CO/N=C(\C(=O)N[C@@H]1C(=O)N2C(C(=O)O)=C(CSc3nc(=O)c(O)nn3C)CS[C@H]12)c1csc(N)n1 [CEF, Ceftriazone] |  |  |  |  |  |  | R | R |  |
| Gentamicin |  |  | S | R | R | R |  |  |  |
| CN(C)[C@@H]1C(O)=C(C(N)=O)C(=O)[C@@]2(O)C(O)=C3C(=O)c4c(O)cccc4[C@@](C)(O)[C@H]3C[C@@H]12 [TET, Tetracycline] | R | S | S | S | S | R |  |  |  |
